Laboratory results reported in paper PMC10657444, “Design and evaluation of tadpole-like conformational antimicrobial peptides” (Communications Biology, 2023).
Values after ≈ are worked out from the molar mass of the structure shown. Residues, ends and D or L forms follow the SMILES beside them.

What was measured:
[1] = test system: E. coli ATCC 25922; type: cell-based, Escherichia coli
Excerpt: (§1) Bacteria were cultivated in Luria-Bertani (LB) broth.

[2] = test system: E. coli S; type: cell-based, Escherichia coli
Excerpt: as §1

[3] = test system: sheep red blood cells; experiment: Hemolysis assay; details: red cells of sheep, 1 h
Method: To evaluate the hemolysis effects of peptides, red blood hemolysis was performed as described with minimum modifications. Sterile defibrated sheep blood was purchased from Guangzhou Hongquan Biotechnology Co., LTD. Blood cells were adjusted to 2 × 10^9 cells/mL in phosphate-buffered saline (PBS, pH 7.4). In total, 98 μL sheep red blood cell suspension was incubated with 2 μL of peptides at different concentrations ranging from 3.13 to 100 µM. After incubation for 1 h at 37 °C, the cells were centrifuged and the absorbance of the supernatant was measured at 450 nm. The value for “zero hemolysis” was determined using sterile PBS, while 100% hemolysis was established using 1.5% (v/v) Triton X-100. Hemolysis of testing sample was calculated as the percentage of Triton X-100-induced hemolysis.

[4] = test system: K. pneumoniae 3026; type: cell-based, Klebsiella pneumoniae
Excerpt: as §1

[5] = test system: K. pneumoniae ATCC 700603; type: cell-based, Klebsiella pneumoniae
Excerpt: as §1

[6] = test system: all tested bacterial strains; details: range over all strains
Excerpt: The bacterial strains used in this study included the Gram-positive bacteria methicillin resistant Staphylococcus aureus (MRSA) (MRSA ATCC 43300 and 2 clinically isolated strains presented as MRSA USA 300 and MRSA 3393), Gram-negative bacteria Escherichia coli (E. coli ATCC 25922, and 1 clinically isolated strain presented as E. coli S), Klebsiella pneumoniae (K. pneumoniae ATCC 700603, and 1 clinically isolated strain presented as K. pneumoniae 3026), and Acinetobacter baumannii (2 clinically isolated strains presented as A. baumannii 1318 and A. baumannii 1337). Bacteria were cultivated in Luria-Bertani (LB) broth.
The Clinical and Laboratory Standards Institute (CLSI)-defined broth microdilution testing method (M07, 11th edition, 2018) was used to determine MICs for peptides. Briefly, the concentrations of the peptides and ciprofloxacin in the assay wells ranged from 100 μM to 0.01 μM as a 11-point dose response plated as a 2-fold dilution series across the wells of the plate in duplicate for each independent biological replicate. Bacterial susceptibility assays were performed in Cation-Adjusted Mueller Hinton Broth (CAMHB), and using a final cell density of 5 × 10^6 CFU/mL for bacteria[36]. Final assay volumes were 100 μL per well with MICs determined by measuring absorbance at 595 nm with a microplate reader following 18–20 h incubation at 37 °C. […]

[7] = test system: A. baumannii 1318; type: cell-based, Acinetobacter baumannii
Excerpt: as §1

[8] = test system: A. baumannii 1337; type: cell-based, Acinetobacter baumannii
Excerpt: as §1

[9] = test system: MRSA 3393; type: cell-based, Staphylococcus aureus; details: 3393
Excerpt: as §1

[10] = test system: MRSA ATCC 43300; type: cell-based, Staphylococcus aureus; details: ATCC 43300
Excerpt: as §1

[11] = test system: MRSA USA 300; type: cell-based, Staphylococcus aureus
Excerpt: as §1

[12] = MTT cytotoxicity assay; type: cell-based, human; details: human
Method: (§2) To determine the cytotoxicity of the peptides, we used the MTT (3-(4,5)-dimethylthiahiazo (-z-y1)-3,5-di-phenytetrazoliumromide) dye reduction assay against HEK293T cells. In brief, the 100 μL of cells in 96-well plate were incubated for 24 h at 37 °C, 5% CO2, and then peptide solutions (concentrations ranging from 100 to 0.39 μM) were added and further incubated for 72 h. MTT solution (5 mg/mL) was added and further incubated for 4 h. After incubation, the precipitated MTT formazan crystal was dissolved by addition of dimethyl sulfoxide (DMSO). […]

[13] = test system: HEK293T cells; experiment: MTT cytotoxicity assay; type: cell-based, human
Method: as §2

[14] = test system: Acinetobacter baumannii; type: cell-based
Excerpt: as §1

[15] = test system: MRSA; type: cell-based, Staphylococcus aureus
Excerpt: as §1

[16] = HEK293T cells, OD450, cytotoxicity (Fig 2a), replicates

| Compound | MIC Gram- E. coli ATCC 25922 [1] [µM] | MIC Gram- E. coli S [2] [µM] | HC10 (concentration inducing 10% hemolysis) [3] [µM] | MIC Gram- K. p 3026 [4] [µM] | MIC Gram- K. p ATCC 700603 [5] [µM] | MIC Gram- A. b 1318 [7] [µM] | MIC Gram- A. b 1337 [8] [µM] | MIC Gram+ MRSA 3393 [9] [µM] | MIC Gram+ MRSA ATCC 43300 [10] [µM] | MIC Gram+ MRSA USA 300 [11] [µM] | IC50 at 72 h [12] [µM] | viability at 72 h, 0.39 µM [12, 16] [%] | viability at 72 h, 0.78 µM [12, 16] [%] | viability at 72 h, 1.57 µM [12, 16] [%] | viability at 72 h, 3.13 µM [12, 16] [%] | viability at 72 h, 12.5 µM [12, 16] [%] | viability at 72 h, 25 µM [12, 16] [%] | toxicity / cytotoxicity against HEK293T cells (in words) [13] | other results |
| --- | --- | --- | --- | --- | --- | --- | --- | --- | --- | --- | --- | --- | --- | --- | --- | --- | --- | --- | --- |
| CC[C@H](C)[C@H](NC(=O)[C@H](CCCNC(=N)N)NC(=O)[C@H](CCCNC(=N)N)NC(=O)[C@H](CC(C)C)NC(=O)[C@H](Cc1ccccc1)NC(=O)[C@@H](N)CCCNC(=N)N)C(=O)N[C@@H](Cc1ccccc1)C(=O)N[C@@H](CCCNC(=N)N)C(=O)N[C@@H](Cc1ccccc1)C(=O)N[C@@H](Cc1ccccc1)C(=O)N[C@@H](Cc1ccccc1)C(N)=O [HT4] (H-RFLRRIFRFFF-NH2) | 6.25 (≈ 10 µg/mL) | 12.5 (≈ 20 µg/mL) | 12.5 | 12.5 (≈ 20 µg/mL) | 3.13 (≈ 5.02 µg/mL) | 3.13 (≈ 5.02 µg/mL) | 3.13 (≈ 5.02 µg/mL) | 3.13 (≈ 5.02 µg/mL) | 3.13 (≈ 5.02 µg/mL) | 3.13 (≈ 5.02 µg/mL) | 2.6 | 85.8 | 80 | 70.9 | 34.7 | 13.4 | 5.83 | high toxicity | MICs against all tested bacterial strains [6]: 3.13 to 12.5 µM; viability at 72 h, 6.25 µM [12, 16]: 22.3% |
| CC[C@H](C)[C@H](NC(=O)[C@H](CCCNC(=N)N)NC(=O)[C@H](CCCNC(=N)N)NC(=O)[C@H](CC(C)C)NC(=O)[C@@H](N)Cc1ccccc1)C(=O)N[C@@H](Cc1ccccc1)C(=O)N[C@@H](Cc1ccccc1)C(=O)N[C@@H](Cc1ccccc1)C(=O)N[C@@H](Cc1ccccc1)C(N)=O [HT1] (H-FLRRIFFFF-NH2) | 25 (≈ 32.3 µg/mL) | 12.5 (≈ 16.1 µg/mL) | 25.0 | > 100 | > 100 | 25 (≈ 32.3 µg/mL) | 25 (≈ 32.3 µg/mL) | 6.25 (≈ 8.07 µg/mL) | 3.13 (≈ 4.04 µg/mL) | 6.25 (≈ 8.07 µg/mL) | 2.7 | 93.6 | 87.3 | 78 | 30.5 | 0.557 | 1.3 | high toxicity | MIC against Gram-negative Acinetobacter baumannii [14]: 25 µM (≈ 32.3 µg/mL); MICs against MRSA [15]: 3.13 to 6.25 µM |
